# “Also recorded” adds a separate entry of the source. Read-outs that look alike come from different tables or passages of the source.
# Assays:
# [1] = Food effect (high-fat meal vs fasted) on pharmacokinetics; type: in vivo, human; settings: taken with a high-fat meal
# Description: To avoid variability in drug exposure, it is recommended that throughout the treatment period, patients will be directed to take study drug at home with ˜240 mL (8 ounces) of water in the morning in a fasting state, at least 30 min prior to the first beverage apart from water and 60 min prior to first meal of the day, preferably at the same time of the day.
# [2] = Human efficacy dose calculation from rat efficacious exposure
# Description: The human efficacy dose was calculated based on the efficacious exposure in the rat ANIT-induced disease model. Since the in vitro potency and protein binding between human and rat were similar, the EC80 exposure in human was assumed to be the same as that in rat (3.05 ng*h/mL).
# [3] = tested on: FXR target genes
# [4] = Safety and tolerability in healthy subjects; type: in vivo, human
# [5] = tested on: rat alpha-naphthyl-isothiocyanate (ANIT) model; assay: Chronic treatment rat ANIT model, serum markers of cholestasis and liver damage; type: in vivo; settings: 14 days oral dosing
# Description: This model was utilized because it recapitulates many features of cholestasis observed in human PBC. In rats, ANIT-treatment leads to hepatic inflammatory cell infiltrate, bile duct hyperplasia, necrosis of bile duct epithelium, expansion of the hepatic portal region, hepatic fibrosis, hepatocellular necrosis and elevated levels of circulating bile acids, bilirubin, ALT, AST and GGT. These features are similar to subjects with advanced PBC.
# Rats were treated with alpha-naphthyl-isothiocyanate (ANIT) (0.1% w/w) in food for 3 days prior to treatment with the compound at the indicated doses or with vehicle control (“Veh”). A non-cholestatic control group was fed standard chow diet without ANIT, and serve as the non-cholestatic control animals (“Control”). After 14 days of oral dosing, the indicated analyte was measured in serum. LLQ, lower limit of quantitation. Mean±SEM; n=5.
# [6] = Protein binding, human vs rat; type: in vitro ADME
# [7] = tested on: FGF19; settings: healthy subjects, single and repeated dosing
# [8] = Multiple oral dose plasma pharmacokinetics in healthy subjects; type: in vivo, human; settings: for Cmax / AUC / Tmax: human, plasma
# [9] = clinical study in healthy subjects
# [10] = healthy subjects, 10 μg qd, Day 1, plasma, mean
# [11] = healthy subjects, 10 μg qd, Day 13, plasma, mean
# [12] = healthy subjects, 30 μg qd, Day 1, plasma, mean
# [13] = healthy subjects, 30 μg qd, Day 13, plasma, mean
# [14] = healthy subjects, 60 μg qd, Day 1, plasma, mean
# [15] = healthy subjects, 60 μg qd, Day 13, plasma, mean
# [16] = healthy subjects, 100 μg qd, Day 1, plasma, mean
# [17] = healthy subjects, 100 μg qd, Day 13, plasma, mean
smiles,measurement,setting,value
O=C(O)c1cc(F)c2nc(N3C4CC[C@H]3CC(OCc3c(-c5ccccc5OC(F)(F)F)noc3C3CC3)C4)sc2c1 (some centres unmarked) [Compound A],Tmax,"[1]; human, plasma, oral, read-out: median Tmax",9 h
same,increase of mean AUCinf compared to the fasted state,[1],approximately 60%
same,increase of mean Cmax compared to the fasted state,[1],approximately 60%
same,Cmax at estimated human efficacious dose,[2]; at dose of ~6 μg,~0.2 ng/mL
same,EC80 exposure,"[2]; rat value, human assumed to be the same",3.05 ng·h/mL
same,BSEP gene expression levels,[3]; rat liver,"significant, dose-dependent increases"
same,SHP gene expression levels,[3]; rat liver,"significant, dose-dependent increases"
same,estimated effective dose (mean ED and median ED),"[3]; rats treated two weeks, FXR target gene induction/repression in liver and ileum, day 14",approximately 0.01 mg/kg
same,"elevation of transaminases (ALT and AST), number of subjects",[4]; 100 μg repeated daily,3 subjects
same,ALP or bilirubin,"[4]; 100 μg repeated daily, any subject",no elevation
same,time for elevated ALT to resolve to within normal levels,"[4]; 100 μg, without intervention",≤ 14 days
same,adverse events related to itch,[4]; [9],no adverse events related to itch
same,"physical exam, vital signs or ECGs",[4]; [9],No significant findings
same,tolerability,"[4]; repeated daily administration, doses up to and including 60 μg",well tolerated
same,serum bile acid concentrations,[5],Marked reductions
same,serum bilirubin concentrations,[5],Marked reductions
same,"hepatobiliary injury indicators (AST, ALT, bilirubin, bile acids) in serum",[5]; 0.01 to 3 mg/kg,improved many of these indicators starting at doses as low as 0.01 mg/kg
same,protein binding between human and rat,[6],similar
same,FGF19 response to dose,[7],Dose-dependent increases; also recorded: continues to rise with increasing Compound A doses beyond 100 μg
same,Racc,[8]; [10],1.00
same,Tlast,[8]; [10],23.9 h
same,Racc,[8]; [11],1.87
same,Tlast,[8]; [11],23.6 h
same,Racc,[8]; [12],1.00
same,Tlast,[8]; [12],23.9 h
same,Racc,[8]; [13],1.21
same,Tlast,[8]; [13],23.6 h
same,Racc,[8]; [14],1.00
same,Tlast,[8]; [14],23.9 h
same,Racc,[8]; [15],1.66
same,Tlast,[8]; [15],22.3 h
same,Racc,[8]; [16],1.00
same,Tlast,[8]; [16],23.9 h
same,Racc,[8]; [17],1.41
same,Tlast,[8]; [17],23.6 h
same,Cmax,"[8]; oral, 10 μg, average Cmax at day 13 for a dose level of 10 μg, exposures for the doses 10-100 μg normalized to 10 μg",0.32 ng/mL
same,AUC,"[8]; oral, 10 μg, exposures for the doses 10-100 μg normalized to 10 μg, read-out: average AUCtau at day 13 for a dose level of 10 μg",4.84 ng·h/mL
same,AUC,"[8]; oral, 10 ug, healthy subjects, 10 μg qd, Day 1, plasma, mean, read-out: AUCtau",2.88 ng·h/mL
same,Cmax,"[8]; oral, 10 ug, healthy subjects, 10 μg qd, Day 1, plasma, mean, read-out: Cmax",0.212 ng/mL
same,Tmax,"[8]; oral, 10 ug, healthy subjects, 10 μg qd, Day 1, plasma, median, read-out: Tmax",4 h
same,AUC,"[8]; oral, 10 ug, healthy subjects, 10 μg qd, Day 13, plasma, mean, read-out: AUCtau",4.88 ng·h/mL
same,Cmax,"[8]; oral, 10 ug, healthy subjects, 10 μg qd, Day 13, plasma, mean, read-out: Cmax",0.319 ng/mL
same,Tmax,"[8]; oral, 10 ug, healthy subjects, 10 μg qd, Day 13, plasma, median, read-out: Tmax",4 h
same,AUC,"[8]; oral, 30 ug, healthy subjects, 30 μg qd, Day 1, plasma, mean, read-out: AUCtau",11.7 ng·h/mL
same,Cmax,"[8]; oral, 30 ug, healthy subjects, 30 μg qd, Day 1, plasma, mean, read-out: Cmax",0.894 ng/mL
same,Tmax,"[8]; oral, 30 ug, healthy subjects, 30 μg qd, Day 1, plasma, median, read-out: Tmax",6 h
same,AUC,"[8]; oral, 30 ug, healthy subjects, 30 μg qd, Day 13, plasma, mean, read-out: AUCtau",14 ng·h/mL
same,Cmax,"[8]; oral, 30 ug, healthy subjects, 30 μg qd, Day 13, plasma, mean, read-out: Cmax",0.943 ng/mL
same,Tmax,"[8]; oral, 30 ug, healthy subjects, 30 μg qd, Day 13, plasma, median, read-out: Tmax",4 h
same,AUC,"[8]; oral, 60 ug, healthy subjects, 60 μg qd, Day 1, plasma, mean, read-out: AUCtau",16.2 ng·h/mL
same,Cmax,"[8]; oral, 60 ug, healthy subjects, 60 μg qd, Day 1, plasma, mean, read-out: Cmax",1.22 ng/mL
same,Tmax,"[8]; oral, 60 ug, healthy subjects, 60 μg qd, Day 1, plasma, median, read-out: Tmax",4 h
same,AUC,"[8]; oral, 60 ug, healthy subjects, 60 μg qd, Day 13, plasma, mean, read-out: AUCtau",25.3 ng·h/mL
same,Cmax,"[8]; oral, 60 ug, healthy subjects, 60 μg qd, Day 13, plasma, mean, read-out: Cmax",1.61 ng/mL
same,Tmax,"[8]; oral, 60 ug, healthy subjects, 60 μg qd, Day 13, plasma, median, read-out: Tmax",4 h
same,AUC,"[8]; oral, 100 ug, healthy subjects, 100 μg qd, Day 1, plasma, mean, read-out: AUCtau",30.3 ng·h/mL
same,Cmax,"[8]; oral, 100 ug, healthy subjects, 100 μg qd, Day 1, plasma, mean, read-out: Cmax",2.4 ng/mL
same,Tmax,"[8]; oral, 100 ug, healthy subjects, 100 μg qd, Day 1, plasma, median, read-out: Tmax",4 h
same,AUC,"[8]; oral, 100 ug, healthy subjects, 100 μg qd, Day 13, plasma, mean, read-out: AUCtau",50.2 ng·h/mL
same,Cmax,"[8]; oral, 100 ug, healthy subjects, 100 μg qd, Day 13, plasma, mean, read-out: Cmax",3.47 ng/mL
same,Tmax,"[8]; oral, 100 ug, healthy subjects, 100 μg qd, Day 13, plasma, median, read-out: Tmax",4 h
same,Tmax,"[8]; po, once daily oral dosing 10-100 μg, fasted, post-dose, read-out: Tmax range",3 to 10 h
same,Tmax,"[8]; po, once daily oral dosing for 13 days, fasted, Day 13, across all doses, read-out: median Tmax",4 h
same,dose proportionality of Cmax and AUCtau,"[8]; once daily doses for 13 days, 10-100 μg",approximately dose-proportional increase
same,time to steady-state,"[8]; once daily oral dosing, trough levels",≤ 4 days

# Reference: US20210386729A1, “METHODS FOR TREATING LIVER DISORDERS USING FXR AGONISTS” (NOVARTIS AG, priority 2016, published 2021)
